US9181265B2, “Substituted 2,3-dihydro-1H-benzo[a]pyrano[2,3-c]phenazines as anti-angiogenic and anti-cancer agents” (UNIVERSITE CATHOLIQUE DE LOUVAIN, priority 2010, dated 2015)
Like-named read-outs stand apart in the source and are kept apart here. Marks after values point to notes of the source that are not given here.

How the values were obtained:
U373 = assay: MTT test of overall cell growth, U373 glioma cells, normoxia or hypoxia; assay type: cell-based, human; conditions: for Selectivity: U373, IC50 (normoxia)/IC50 (hypoxia 1% O2), if u.t.d., ratio of activity at 100 μM
Protocol: (§1) MTT tests were performed in order to rapidly, i.e. within 3 days, measure the effect of compounds of this invention on the overall cell growth. The test measured the number of metabolically active living cells that were able to transform the yellow product 3-(4,5-dimethylthiazol-2-yl)-2,5-diphenyl tetrazolium bromide (herein referred as MTT) into the blue product formazan dye by mitochondrial reduction. The amount of formazan obtained at the end of the experiment, measured by means of a spectrophotometer (Plate Reader Victor X4 Microplate reader (Perkin Elmer), is directly proportional to the number of living cells. Optical density determination thus enabled a quantitative measurement of the effect of the investigated compounds under control conditions (normoxia) as compared to the hypoxic conditions (0.1 or 1% O2) and/or untreated conditions.
(§2) Human umbilical vein endothelial cells (HUVEC) and six human cancer cell lines were used in the MTT tests. These cancer cell lines cover five histological cancer types including cervix (SiHa), breast (MCF-7 and MDA-MB231), prostate (PC3), glioma (U373), and colorectal (LoVo) cancers.
(§3) To perform the assay, cells were allowed to grow in 96-well microplates with a flat bottom following addition of an amount of 100 μl of cell suspension per well with 4,500 cells/well. Each cell line was seeded in its appropriate culture medium. HUVEC were cultured in a specific endothelial cell growth medium (ECACC, Sigma); SiHa cells in Glutamax-containing DMEM with 4.5 g/1 glucose (Invitrogen) supplemented with 10% Foetal Bovine Serum (PAA) and 1% penicillin+streptomycin mix (Invitrogen); MCF-7, MDA-MB-231, PC3, and LoVo cells in Glutamax-containing RPMI supplemented with 10% Foetal Bovine Serum (PAA) and 1% penicillin+streptomycin mix (Invitrogen) and U373 cells in Glutamax-containing DMEM (Invitrogen) with 5% Foetal Bovine Serum (PAA) and 1% penicillin+streptomycin mix (Invitrogen).
(§4) The detailed experimental procedure was the following: after a 24-hour period of incubation at 37° C., the culture medium was replaced by 100 μl of fresh medium in which the tested compound was previously dissolved, at the following concentrations: 10^−8 M, 5.10^−8, 10^−7, 5.10^−7, 10^−6, 5.10^−6, 10^−5, 5.10^−5 and 10^−[…]. Each experiment was performed in sestuplicates (6 times).
(§5) Cells were then incubated under normoxia in a Binder incubator (the O2 level corresponding to the concentration in the ambient air), or in a Ruskin hypoxia workstation under either 0.1% O2 (v/v) or 1% O2 (v/v). Under both conditions, the atmosphere was humidified and the CO2 concentration was fixed at 5 vol. %.
(§6) After 72 hours of incubation at 37° C. under normoxic or hypoxic conditions, with or without the compound to be tested, the medium was replaced by 100 μl of HBSS (without phenol red) containing MTT at a concentration of 0.5 or 1 mg/ml. The micro-wells were subsequently incubated during 3 hours and a half at 37° C. and centrifuged at 1300 rpm during 10 minutes. Medium was removed and formazan crystals formed were dissolved in 100 μl DMSO. The micro-wells were shaken for 5 minutes and read on a spectrophotometer at wavelengths of 570 nm (maximal formazan absorbance).
(§7) For each experimental condition, the mean optical density was calculated, allowing the determination of the percentage of living cells in comparison to the control.

LoVo = assay: MTT test of overall cell growth, LoVo colorectal cancer cells, normoxia or hypoxia; assay type: cell-based, human; conditions: for Selectivity: IC50 (normoxia)/IC50 (hypoxia 1% O2), if u.t.d., ratio of activity at 100 μM
Protocol: as §1, §2, §3, §4, §5, §6, §7

siHa = assay: MTT test of overall cell growth, SiHa cervix cancer cells, normoxia or hypoxia; assay type: cell-based, human; conditions: for Selectivity: IC50 (normoxia)/IC50 (hypoxia 1% O2), if u.t.d., ratio of activity at 100 μM
Protocol: as §1, §2, §3, §4, §5, §6, §7

MDA-MB-231 = assay: MTT test of overall cell growth, MDA-MB-231 breast cancer cells, normoxia or hypoxia; assay type: cell-based, human; conditions: for Selectivity: MDA-MB-231, IC50 (normoxia)/IC50 (hypoxia 1% O2), if u.t.d., ratio of activity at 100 μM
Protocol: as §1, §2, §3, §4, §5, §6, §7

[1] = test system: Human umbilical vein endothelial cells (HUVEC); assay: MTT test of overall cell growth, endothelial cells, normoxic or hypoxic conditions; assay type: cell-based; conditions: for Selectivity: if u.t.d., ratio of activity at 100 μM
Protocol: as §1, §2, §3, §4, §5, §6, §7

PC3 = assay: MTT test of overall cell growth, PC3 prostate cancer cells, normoxia or hypoxia; assay type: cell-based, human; conditions: for Selectivity: PC3, IC50 (normoxia)/IC50 (hypoxia 1% O2), if u.t.d., ratio of activity at 100 μM
Protocol: as §1, §2, §3, §4, §5, §6, §7

MCF-7 = assay: MTT test of overall cell growth, MCF-7 breast cancer cells, normoxia or hypoxia; assay type: cell-based, human; conditions: for Selectivity: MCF-7, IC50 (normoxia)/IC50 (hypoxia 1% O2), if u.t.d., ratio of activity at 100 μM
Protocol: as §1, §2, §3, §4, §5, §6, §7

[2] = Homo sapiens, U373 MG, U373, hypoxia 1% O2, 72 h, read-out: IC50 (μM) Hypoxia 1% O2
[3] = Homo sapiens, hypoxia 1% O2, 72 h, read-out: IC50 (μM) Hypoxia 1% O2
[4] = Homo sapiens, normoxia, 72 h, read-out: IC50 (μM) Normoxia
[5] = Homo sapiens, MDA-MB-231, hypoxia 1% O2, 72 h, read-out: IC50 (μM) Hypoxia 1% O2
[6] = Homo sapiens, 72 h, hypoxia 0.1% O2, 72 h, read-out: IC50 (μM) Hypoxia 0.1%
[7] = Homo sapiens, 72 h, hypoxia 1% O2, 72 h, read-out: IC50 (μM) Hypoxia 1%
[8] = Homo sapiens, 72 h, normoxia, 72 h, series compared with hypoxia 0.1%, read-out: IC50 (μM) Normoxia
[9] = Homo sapiens, 72 h, normoxia, 72 h, series compared with hypoxia 1%, read-out: IC50 (μM) Normoxia
[10] = IC50 (normoxia)/IC50 (hypoxia 0.1%)
[11] = IC50 (normoxia)/IC50 (hypoxia 1%)
[12] = Homo sapiens, PC-3, PC3, hypoxia 1% O2, 72 h, read-out: IC50 (μM) Hypoxia 1% O2
[13] = Homo sapiens, MCF7, MCF-7, hypoxia 1% O2, 72 h, read-out: IC50 (μM) Hypoxia 1% O2
[14] = hypoxia 1% O2, 72 h, read-out: IC50 (μM) Hypoxia 1% O2
[15] = normoxia, 72 h, read-out: IC50 (μM) Normoxia

SMILES | IC50 (U373; [2]) | Selectivity (U373) | IC50 (LoVo; [3]) | IC50 (LoVo; [4]) | Selectivity (LoVo) | IC50 (siHa; [3]) | Selectivity (siHa) | IC50 (MDA-MB-231; [5]) | Selectivity (MDA-MB-231) | IC50 [1, 6] | IC50 [1, 7] | IC50 [1, 8] | IC50 [1, 9] | Selectivity [1, 10] | Selectivity [1, 11] | IC50 (PC3; [12]) | Selectivity (PC3) | IC50 (MCF-7; [13]) | Selectivity (MCF-7) | IC50 (μM) Normoxia (U373; U373, normoxia, 72 h) | other results
C[C@H]1CC[C@H]2[C@H](C1)c1c(c3ccccc3c3nc4cc(C(=O)N5CCOCC5)ccc4nc13)OC2(C)C (racemic) [Compound 12] | 0.14 µM | 75.00 | 1.31 µM | 9.69 µM | 7.38 | 1.13 µM | 17.50 | 1.27 µM | 23.81 | 0.14 µM | 0.4 µM | 8.27 µM | 5.65 µM | 58 | 14 | 1.31 µM | 11.23 | 1.45 µM | 5.56 | – | IC50 (U373; Homo sapiens, U373 MG, U373, normoxia, 72 h, read-out: IC50 (μM) Normoxia): 10.6 µM; IC50 (siHa; [4]): 19.8 µM; IC50 (MDA-MB-231; Homo sapiens, MDA-MB-231, normoxia, 72 h, read-out: IC50 (μM) Normoxia): 30.3 µM; IC50 (PC3; Homo sapiens, PC-3, PC3, normoxia, 72 h, read-out: IC50 (μM) Normoxia): 14.7 µM; IC50 (MCF-7; Homo sapiens, MCF7, MCF-7, normoxia, 72 h, read-out: IC50 (μM) Normoxia): 8.07 µM
CC1CCC2C(C1)c1c(c3ccccc3c3nc4ccc(C(=O)NC(CO)Cc5ccccc5)cc4nc13)OC2(C)C (mixture of isomers) [Compound 17′] | – | 8.67 | – | – | 1.64 | – | 9.50 | – | 5.40 | – | – | – | – | 230 | 16 | – | 1.31 | – | 1.37 | – | IC50 (U373; U373, hypoxia 1% O2, 72 h, read-out: IC50 (μM) Hypoxia 1% O2): 1.34 µM; IC50 (U373; U373, normoxia, 72 h, read-out: IC50 (μM) Normoxia): 11.6 µM; IC50 (LoVo; [14]): 11.4 µM; IC50 (LoVo; [15]): 18.8 µM; IC50 (siHa; [14]): 10.7 µM; IC50 (siHa; [15]): 102 µM; IC50 (MDA-MB-231; MDA-MB-231, hypoxia 1% O2, 72 h, read-out: IC50 (μM) Hypoxia 1% O2): 11.1 µM; IC50 (MDA-MB-231; MDA-MB-231, normoxia, 72 h, read-out: IC50 (μM) Normoxia): 59.9 µM; IC50 ([1]; hypoxia 0.1% O2, 72 h, read-out: IC50 (μM) Hypoxia 0.1%): 0.07 µM; IC50 ([1]; hypoxia 1% O2, 72 h, read-out: IC50 (μM) Hypoxia 1%): 0.36 µM; IC50 ([1]; normoxia, 72 h, series compared with hypoxia 0.1%, read-out: IC50 (μM) Normoxia): 17 µM; IC50 ([1]; normoxia, 72 h, series compared with hypoxia 1%, read-out: IC50 (μM) Normoxia): 5.72 µM; IC50 (PC3; PC3, hypoxia 1% O2, 72 h, read-out: IC50 (μM) Hypoxia 1% O2): 11.6 µM; IC50 (PC3; PC3, normoxia, 72 h, read-out: IC50 (μM) Normoxia): 15.2 µM; IC50 (MCF-7; MCF-7, hypoxia 1% O2, 72 h, read-out: IC50 (μM) Hypoxia 1% O2): 12.5 µM; IC50 (MCF-7; MCF-7, normoxia, 72 h, read-out: IC50 (μM) Normoxia): 17.2 µM
COc1ccc(CNC(=O)c2ccc3nc4c5c(c6ccccc6c4nc3c2)OC(C)(C)[C@H]2CC[C@H](C)C[C@H]52)c(OC)c1 [Compound 16] | 234 µM | >1.14^b | – | 210 µM | <0.79^b | 138 µM | >1.92^b | 230 µM | >1.16^b | 0.09 µM | 14.4 µM | 129 µM | 42.6 µM | 1480 | 3 | – | – | 164 µM | >1.63^b | u.t.d. | IC50 (μM) Hypoxia 1% O2 (LoVo; hypoxia 1% O2, 72 h): u.t.d.; IC50 (μM) Normoxia (siHa; normoxia, 72 h): u.t.d.; IC50 (μM) Normoxia (MDA-MB-231; MDA-MB-231, normoxia, 72 h): u.t.d.; IC50 (μM) Hypoxia 1% O2 (PC3; PC3, hypoxia 1% O2, 72 h): u.t.d.; IC50 (μM) Normoxia (PC3; PC3, normoxia, 72 h): u.t.d.; IC50 (μM) Normoxia (MCF-7; MCF-7, normoxia, 72 h): u.t.d.
COC(=O)c1ccc2nc3c(nc2c1)c1c(c2ccccc23)OC(C)(C)[C@H]2CC[C@H](C)C[C@H]12 [Compound 11′] | 74.9 µM | >3.03^b | 154 µM | 220 µM | 1.43 | 132 µM | >1.72^b | 136 µM | >1.67^b | 13.6 µM | 11.8 µM | 225 µM | 176 µM | 16.5 | 15 | 161 µM | >1.41^b | 150 µM | >1.52^b | u.t.d. | IC50 (μM) Normoxia (siHa; normoxia, 72 h): u.t.d.; IC50 (μM) Normoxia (MDA-MB-231; MDA-MB-231, normoxia, 72 h): u.t.d.; IC50 (μM) Normoxia (PC3; PC3, normoxia, 72 h): u.t.d.; IC50 (μM) Normoxia (MCF-7; MCF-7, normoxia, 72 h): u.t.d.
